Laboratory results taken from patent US6239171A, “Tocotrienols and tocotrienol-like compounds and methods for their use” (Lipogenics, Inc., priority 1998, dated 2001).

What was measured:
Format in all cases: in vivo
[1] = system: cholesterol 7α-hydroxylase; experiment: Hepatic cholesterol 7α-hydroxylase activity in hypercholesterolemic swine; conditions: control diet + 50 ppm
Source text: (§1) All assays conducted on chicken or swine serum were done following the protocols described in A. A. Qureshi et al., "Lowering Of Serum Cholesterol In Hypercholesterolemic Humans By Tocotrienols" (Palmvitee), Am. J. Clin. Nutr., 53, pp. 1021S-26S (1991). All enzymatic assays were done following the protocols described in A. A. Qureshi et al., "Effects of Cereals and Culture Filtrate of Trichoderma viride on Lipid Metabolism of Swine", Lipids, 17, pp. 924 (1982). Plasma insulin, glucagon and TNF levels were measured using radioinnumoassay kits from Ventrex Laboratories, Inc. (Portland, Me.), ICN Biomedicals, Inc. (Costa Mesa, Calif.) and Genzyme Corp. (Cambridge, Mass.), respectively.
We next measured the effects of various tocotrienols from rice bran on HMG-CoA reductase and cholesterol 7α-hydroxylase in hypercholesterolemic swine. Since pigs are very similar to humans in their cholesterol metabolism, they provide a useful model from which to study hypercholesterolemia and related diseases. […] The serum cholesterol concentration in these swine is typically above 300-500 mg/dl, as compared to 120-160 mg/dl in normal adult swine. As a result, the pigs develop complicated atherosclerotic plaques that closely resemble advanced atherosclerotic lesions found in humans.
(§2) Each group of three 5-month old swine was administered either a control diet or a control diet supplemented with 50 ppm of TRF or 50 ppm of an individual tocotrienol. The samples were prepared as described in Example 11. After a 12 hour fast, serum and plasma samples were taken a 0 hrs, 21 days and 42 days from the start of the feeding period. After taking serum and plasma samples from the pigs at the end of the 42 day period, all of the swine were fasted for a total of 40 hours, followed by a 48 hour refeeding period. One swine from each group was sacrificed at that time and the liver, intestine, lung, heart, loin muscle, adipose tissue and ham muscle were removed.

[2] = system: hypercholesterolemic swine; experiment: Serum cholesterol, apolipoproteins, triglycerides, glucose, insulin and glucagon in hypercholesterolemic swine
Protocol: All assays conducted on chicken or swine serum were done following the protocols described in A. A. Qureshi et al., "Lowering Of Serum Cholesterol In Hypercholesterolemic Humans By Tocotrienols" (Palmvitee), Am. […] Plasma insulin, glucagon and TNF levels were measured using radioinnumoassay kits from Ventrex Laboratories, Inc. (Portland, Me.), ICN Biomedicals, Inc. (Costa Mesa, Calif.) and Genzyme Corp. (Cambridge, Mass.), respectively.
We next measured the effects of various tocotrienols from rice bran on HMG-CoA reductase and cholesterol 7α-hydroxylase in hypercholesterolemic swine. Since pigs are very similar to humans in their cholesterol metabolism, they provide a useful model from which to study hypercholesterolemia and related diseases. […] As a result, the pigs develop complicated atherosclerotic plaques that closely resemble advanced atherosclerotic lesions found in humans.
as §2, with “The samples were prepared as described in Example 11.” left out
The experimental conditions were the same, except that the two remaining swine in each group were transferred to the unsupplemented control diet following the 42 day feeding period. After an additional 70 days, serum and plasma samples were collected from these swine after a 12 hour fast for testing.

[3] = system: hypercholesterolemic swine; experiment: Plasma thromboxane B2 and platelet factor 4 in hypercholesterolemic swine; parameters: Platelet Factor 4: unit not given here; conditions: control diet + 50 ppm, 42 days
Source text: as §1, §2
This example was conducted to measure the serum levels of apolipoprotein (a)1, apolipoprotein B, triglycerides, glucose, insulin and glucagon and the plasma levels of thromboxane B2 and platelet factor 4 in the swine described in Example 15.

[4] = 70 days on control diet after 42 days at 50 ppm

CC(C)=CCC/C(C)=C/CC/C(C)=C/CCC1CCc2cc(O)ccc2O1 (stereo not shown) [P25, 3,4-dihydro-2-(4,8,12-trimethyltrideca-3'(E),7'(E),11'-trienyl)-2H-1-benzopyran-6-ol]
CHOLESTEROL 7α-HYDROXYLASE, percentage of baseline value ([1]; 21 days): 101.09% | Cholesterol 7α-hydroxylase ([1]; 21 days): 4.62 pg/min/mg of microsomes | CHOLESTEROL 7α-HYDROXYLASE, Percentage of Control Activity ([1]; 42 days): 98.58% | CHOLESTEROL 7α-HYDROXYLASE, percentage of baseline value ([1]; 42 days): 102.41% | Cholesterol 7α-hydroxylase ([1]; 42 days): 4.68 pg/min/mg of microsomes | HDL-CHOLESTEROL CONCENTRATION IN SERUM [2, 4]: 32.65 mg/100 ml | HDL-CHOLESTEROL, Percentage of Control Activity [2, 4]: 114.29% | HDL-CHOLESTEROL, percentage of baseline value [2, 4]: 149.36% | HDL:LDL CHOLESTEROL, Percentage of Control Activity [2, 4]: 82.06% | LDL-CHOLESTEROL CONCENTRATION IN SERUM [2, 4]: 233.75 mg/100 ml | LDL-CHOLESTEROL, Percentage of Control Activity [2, 4]: 90.17% | LDL-CHOLESTEROL, percentage of baseline value [2, 4]: 128.17% | TOTAL CHOLESTEROL CONCENTRATION IN SERUM [2, 4]: 268.90 mg/100 ml | TOTAL CHOLESTEROL, Percentage of Control Activity [2, 4]: 75.60% | TOTAL CHOLESTEROL, percentage of baseline value [2, 4]: 124.45% | Apo A1, percentage of control ([2]; control diet + 50 ppm, 6 weeks): 104.05% | Apo A1 concentration in serum ([2]; control diet + 50 ppm, 6 weeks): 26.73 ± 1.22 mg/100 ml | Apo B concentration in serum ([2]; control diet + 50 ppm, 6 weeks): 106.63 ± 1.72 mg/100 ml | Apo B, percentage of control ([2]; control diet + 50 ppm, 6 weeks): 72.16% | Triglycerides concentration in serum ([2]; control diet + 50 ppm, 6 weeks): 62.00 ± 1.19 mg/100 ml | Triglycerides, percentage of control ([2]; control diet + 50 ppm, 6 weeks): 80.98% | HDL-CHOLESTEROL CONCENTRATION IN SERUM ([2]; control diet + 50 ppm, 21 days): 25.68 mg/100 ml | HDL-CHOLESTEROL, percentage of baseline value ([2]; control diet + 50 ppm, 21 days): 117.47% | HDL:LDL CHOLESTEROL, percentage of baseline value ([2]; control diet + 50 ppm, 21 days): 89.20% | LDL-CHOLESTEROL CONCENTRATION IN SERUM ([2]; control diet + 50 ppm, 21 days): 191.05 mg/100 ml | LDL-CHOLESTEROL, percentage of baseline value ([2]; control diet + 50 ppm, 21 days): 104.76% | TOTAL CHOLESTEROL CONCENTRATION IN SERUM ([2]; control diet + 50 ppm, 21 days): 229.90 mg/100 ml | TOTAL CHOLESTEROL, percentage of baseline value ([2]; control diet + 50 ppm, 21 days): 106.33% | Glucagon ([2]; control diet + 50 ppm, 42 days): 274.41 pg/mL | Glucagon, percentage of control ([2]; control diet + 50 ppm, 42 days): 83.05% | Glucose ([2]; control diet + 50 ppm, 42 days): 71.89 mg/100 ml | Glucose, percentage of control ([2]; control diet + 50 ppm, 42 days): 74.89% | HDL-CHOLESTEROL CONCENTRATION IN SERUM ([2]; control diet + 50 ppm, 42 days): 31.81 mg/100 ml | HDL-CHOLESTEROL, Percentage of Control Activity ([2]; control diet + 50 ppm, 42 days): 123.75% | HDL-CHOLESTEROL, percentage of baseline value ([2]; control diet + 50 ppm, 42 days): 145.52% | HDL:LDL CHOLESTEROL, Percentage of Control Activity ([2]; control diet + 50 ppm, 42 days): 55.59% | HDL:LDL CHOLESTEROL, percentage of baseline value ([2]; control diet + 50 ppm, 42 days): 74.58% | Insulin ([2]; control diet + 50 ppm, 42 days): 20.9 µU/mL | Insulin, percentage of control ([2]; control diet + 50 ppm, 42 days): 101.90% | LDL-CHOLESTEROL CONCENTRATION IN SERUM ([2]; control diet + 50 ppm, 42 days): 198.01 mg/100 ml | LDL-CHOLESTEROL, Percentage of Control Activity ([2]; control diet + 50 ppm, 42 days): 65.51% | LDL-CHOLESTEROL, percentage of baseline value ([2]; control diet + 50 ppm, 42 days): 107.48% | TOTAL CHOLESTEROL CONCENTRATION IN SERUM ([2]; control diet + 50 ppm, 42 days): 237.64 mg/100 ml | TOTAL CHOLESTEROL, Percentage of Control Activity ([2]; control diet + 50 ppm, 42 days): 68.60% | TOTAL CHOLESTEROL, percentage of baseline value ([2]; control diet + 50 ppm, 42 days): 107.60% | Platelet Factor 4 [3]: 19.15 | Platelet Factor 4, percentage of control [3]: 79.36% | Thromboxane B2 [3]: 57.03 pg/100 ml | Thromboxane B2, percentage of control [3]: 83.02%
